Laboratory results from US20200085839A1, “COMBINATION OF IMMUNOTHERAPEUTICS AND BISFLUOROALKYL-1,4-BENZODIAZEPINONE COMPOUNDS FOR TREATING LYMPHOMAS” (Ayala Pharmaceuticals Inc., priority 2018, published 2020).

Test system: U266 cells (MM cell line)
Assay: Cell-bound BCMA by flow cytometry
Format: cell-based, human
Settings: 24 h, FIG. 1
Protocol: FIG. 1. Levels of cell-bound BCMA en multiple myelma (MM) cells Incubated with γ-secretase inhibitors (GSIs). U266 cells (MM cell line) were incubated with 0.3 nM, 0.5 nM, 1 nM or 3 nM of GSI (Compound 1, Compound 22, LY3039478 or PF3084014) for 24 hours, and BCMA levels were measured by flow cytometry.
For detecting levels of soluble and cell-bound BCMA, U266 cells (MM cell line) were seeded at 1×10^5 cells/well in a total volume of 250 μl into a 96-well plate. The cells were cultured in RPMI medium supplemented with 10% FCS. GSIs (Compound 1, Compound 22, LY3039478 (Lilly), and PF3084014 (Pfizer)) were added to U266 cell cultures at a concentration of 0.3 nM, 0.5 nM, 1 nM and 3 nM for soluble BCMA and at a concentration of […]. Following 24 hours of incubation at 37° C., the cells were collected, and BCMA levels were evaluated in both the cells (cell-bound BCMA) and the cell media (soluble BCMA). Cells were stained with an anti-BCMA antibody (PE anti-human CD269 BCMA, Biolegend). Soluble BCMA levels were analyzed by ELISA (Human BCMA/TNFRSF17 DuoSet kit: R&D Systems).

SMILES	cell-bound BCMA levels
CCC[C@H](N[C@H]1CCc2cc(F)cc(F)c2C1)C(=O)Nc1cn(C(C)(C)CNCC(C)(C)C)cn1 [PF3084014, reference compound]	increased cell-bound BCMA levels
C[C@H](NC(=O)CCC(F)(F)F)C(=O)N[C@@H]1C(=O)N(CCO)c2ncccc2-c2ccccc21 [LY3039478, reference compound]	increased cell-bound BCMA levels
